We go through five molecules from patent US7524849B2, “5-arylpyrimidines as anticancer agents” (Wyeth Holdings Corporation, priority 2003, dated 2009).

Structures are written as SMILES. Like-named read-outs stand apart in the source and are kept apart here. Marks after values point to notes of the source that are not given here.

For assay [1], the system named is H157 Human Non-Small Cell Lung Carcinoma. The settings on record: for growth of xenografts: H157 NSCLC.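 For all read-outs here: subcutaneous flank tumors in female athymic nu/nu mice, staged near 100 mm^3 on day 0, tumor volume from caliper measurements, vehicle-dosed controls on the same schedule.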
The next assay has as its system HL-60/ADR cells. Kind of assay: MTS cytotoxicity test with HL-60/ADR cells (MRP1). It is filed as cell-based, human. The settings on record: for IC50: HL-60/ADR cells, mean of 2 experiments; for Ratio: IC50 on HL-60/ADR cells/IC50 on HL-60 cells. From the text: (§1) Human cancer cell lines, unless otherwise noted, are obtained from the American Type Culture Collection (Rockville, Md.). The following drug-sensitive parental cell lines, and their derived drug-resistant counterparts, are obtained from the originators as listed: (a) S1 (parental line from a subclone of human colon carcinoma line LS174T) and derived S1-M1-3.2 (herein called S1-M1) which expresses the MXR drug transporter protein, are provided by Dr. L. Greenberger, Wyeth Research (Rabindran, S. K., He, H., Singh, M., Brown, E., Collins, K. I., Annable, T., and Greenberger, L. M. Reversal of a novel multidrug resistance mechanism in human colon carcinoma cells by fumitremorgin C. Cancer Res., 58: 5850-5858, 1998); (b) parental HL-60 human promyelocytic leukemia line and derived HL-60/ADR, which expresses the MRP1 drug transporter protein, are provided by Dr. M. Center, University of Kansas (McGrath, T., and Center, M. S. Adriamycin resistance in HL60 cells in the absence of detectable P-glycoprotein. Biochem. Biophys. […] J. Biol. Chem., 261: 7762-7770, 1986) via Dr. L. Greenberger, Wyeth Research.
(§2) The assay, which is sold in kit form by Promega (Madison, Wis.; CellTiter 96 AQueous Non-Radioactive Cell Proliferation Assay), is based on the conversion by viable cells, but not by dead cells, of the tetrazolium salt, MTS (3-(4,5-dimethylthiazol-2-yl)-5-(3-carboxymethoxyphenyl)-2-(4-sulphophenyl)-2H-tetrazolium, inner salt), into a water-soluble colored formazan which is detected by spectrophotometry. Compounds are tested at nine concentrations, in order to determine IC50 values. For the test procedure, cells are harvested by trypsinization, washed, counted and distributed to wells of 96-well flat-bottom microtiter plates at 1000 cells per well in 200 μL of medium. In addition, one row of wells on a separate plate receives cells as above (“time 0” plate). All plates are incubated at 37° in humidified 5% CO2 in air for about 24 hr.
(§3) On day 2, compounds for test are diluted and added to wells. Compounds are dissolved in DMSO at 10 mg/mL. For each compound, nine serial 2-fold dilutions are prepared in DMSO. Ten μL of each dilution in DMSO are transferred to 100 μL of medium, mixed well, and then 5 μL of this dilution are transferred in quadruplicate to wells containing cells. […] Plates are returned to the incubator for three days. At the time of drug addition to the experimental plates, the MTS assay is run on the “time 0” plate. This produces the “time 0 MTS value” which is related to the number of viable cells per well at the time of drug addition.
(§4) After three days of culture with test compounds (day 5 overall), the MTS assay is done on all wells of the experimental plates. The absorbance values of the quadruplicate sample wells are averaged and divided by the average of the “time 0” values. […] The nine values for each compound are plotted against concentration, and the concentration that produces a relative color yield half way between the maximum and minimum is taken as the IC50 value.
HL-60/ADR cells overexpress the multidrug resistance protein MRP1 which mediates resistance to some chemotherapeutics (Gottesman, M. M., Fojo, T., and Bates, S. E. Multidrug resistance in cancer: role of ATP-dependent transporters. Nature Rev. Cancer, 2: 48-58, 2002). The IC50 values of representative examples of this invention, as well as reference compounds, on HL-60/ADR are compared to values on the sensitive parental HL-60 line.
Experimental: The ability of compounds of this invention to inhibit tumor growth in animals is studied in the athymic mouse xenograft standard pharmacological test. Female nu/nu mice in an outbred albino background are obtained from Charles River Laboratories (Wilmington, Mass.). Animals are injected subcutaneously on the flank with the desired tumor cell suspension. Several days later, mice with tumors of approximately 100 mm^3 are selected from those injected (staged) and randomly distributed into groups of 5-10. The day of staging is called day 0. Compounds of the invention, formulated in saline, are administered to animals by intravenous injection or oral gavage on various schedules starting on day 0 or 1, as noted in the tables. The control group in each experiment is dosed with vehicle on the same schedule. Tumor size is measured every 3-7 days with calipers in two orthogonal dimensions, and tumor volume is calculated from the formula volume=[(length×width^2)/2].
Tumor/Control (T/C) is obtained by dividing the mean tumor volume of the treated group by the mean tumor volume of the control group on each measurement day. […] A p value≦0.05, determined by one-side Student's t-test, is required for statistical significance. A treatment dose is defined as toxic if more than 30% of the animals die from a compound-related toxicity.

Another assay has as its system KB cells. Kind of assay: MTS cytotoxicity test with KB cells. The settings on record: mean of 2 experiments. It is filed as cell-based, human.
Source text: as §1, §2, §3, §4

The next assay has as its system S1 cells. Kind of assay: MTS cytotoxicity test with S1 cells. The settings on record: mean of 2 experiments. It is filed as cell-based, human.
Source text: as §1, §2, §3, §4
S1-M1 cells overexpress the MXR transporter which mediates resistance to some chemotherapeutics (Gottesman, M. M., Fojo, T., and Bates, S. E. Miltidrug resistance in cancer: role of ATP-dependent transporters. Nature Rev. Cancer, 2: 48-58, 2002). The IC50 values of representative examples of this invention, as well as reference compounds, on S1-M1 are compared to values on the sensitive parental S1 line.
For orientation: Formazan colour is commonly taken as a measure of viable cells.

In the next assay the test system is MAP-rich tubulin. Kind of assay: Tubulin polymerization test with MAP-rich tubulin. It is filed as biochemical, bovine. As to conditions: 0.3 μM compound, mean A340 at 20 min, fold enhancement over control. How it is done: Medium is RPMI-1640 with L-glutamine, supplemented with 10% heat-inactivated fetal calf serum, 100 units/mL penicillin, and 100 μg/mL streptomycin (Gibco, Grand Island, N.Y.). Microtubule-associated protein (MAP)-rich tubulin, containing about 70% tubulin and 30% MAPs (#ML113), and highly purified tubulin (>99% pure, #TL238), both from bovine brain, are obtained from Cytoskeleton, Inc., Denver, Colo. PEM buffer (80 mM piperazine-N,N′-bis[2-ethanesulfonic acid], pH 6.9, 1 mM ethylene glycol-bis(β-aminoethyl ether)-N,N,N′,N′-tetraacetic acid, 1 mM magnesium chloride) and guanosine 5′-triphosphate (GTP) are also obtained from Cytoskeleton. […] [^3H]vinblastine, specific activity 9.60 Ci/mmol and MicroSpin G-50 columns are obtained from Amersham Biosciences (Piscataway, N.J.). […] Other reagents are obtained from Sigma (St. Louis, Mo.).
MAP-rich tubulin is dissolved in ice-cold PEM buffer containing 1 mM GTP (GPEM buffer) at a concentration of 1.3 mg/mL. The solution is centrifuged at top speed in an Eppendorf model 5415C microcentrifuge (Brinkmann Instruments, Westbury, N.Y.) for 10 min at 4° immediately before use. The tubulin solution is added to wells of a ½-area 96-well plate (Costar No. 3696, Corning, Inc., Corning, N.Y.) already containing the compounds of interest. Each compound is tested in duplicate at a final concentration of 0.3 μM in a volume of 110 μL per well. The final DMSO concentration in all wells is 0.3%. Control reactions, which receive compound solvent only, are done in quadruplicate. The plate is put in a SpectraMax Plus plate reader (Molecular Devices Corp. Sunnyvale, Calif.) thermostated at 24° and the absorbance of each well at 340 nm, a measure of the appearance of turbidity due to tubulin polymer formation, is determined every minute for 60 minutes. The absorbance at time 0 for each well is subtracted from each of the subsequent absorbance readings for that well, and then the duplicates are averaged.

Where [2] appears, read: 1 mg/kg PO, schedule days 1, 7, H157.
Setting [3] is: 5 mg/kg PO, schedule days 1, 7, H157.
The mark [4] stands for this setting: 5 mg/kg IV, schedule day 0, H157 (Table 11).
[5] abbreviates: 5 mg/kg PO, schedule day 0, H157.
[6] abbreviates: 1.5 mg/kg IV, schedule days 0, 7, H157.
[7] abbreviates: 3 mg/kg IV, schedule days 0, 7, H157.

As usually defined, the IC50 is the midpoint of a concentration-inhibition curve. High values mean weaker potency, low ones greater potency. Regarding `CNCCCOc1cc(F)c(-c2c(Cl)nc(-c3cnccn3)nc2N[C@@H](C)C(F)(F)F)c(F)c1.Cl` [Example 24a, 6-Chloro-5-{2,6-difluoro-4-[3-(methylamino)propoxy]phenyl}-2-pyrazin-2-yl-N-[(1S)-2,2,2-trifluoro-1-methylethyl]pyrimidin-4-amine hygrogen chloride], in assay [1] (setting [2]), the “T/C on day 0” value came to 0.96, the “T/C on day 4” value is reported as 0.73*, the “T/C on day 7” value amounted to 0.70 and the “T/C on day 10” value is recorded as 0.58. Also, in assay [1] (setting [2]), the “T/C on day 13” value is 0.50*. In addition, in assay [1] (setting [3]), the “T/C on day 0” value is given as 0.98, the “T/C on day 4” value is given as 0.64**, the “T/C on day 7” value is listed as 0.51** and the “T/C on day 10” value is 0.16**. Besides, the “T/C on day 13” value in assay [1] (setting [3]) is reported as 0.12**. The growth of xenografts entry in assay [1] (orally on days 1 and 7 with 5 or 1 mg/kg/dose) was “inhibits the growth”. Further, in the assay on HL-60/ADR cells, the half-inhibitory concentration (IC50) is 6.3 nM and the Ratio was 1.0. In the assay on KB cells, this molecule had a concentration for half-maximal inhibition (IC50) of 7 nM. The molecule further yielded an IC50 in the assay on S1 cells of 20 nM. In the assay with MAP-rich tubulin, the “A340 Compound / A340 Control” value amounted to 2.3.

In the case of `CNCCCOc1cc(F)c(-c2c(Cl)nc(-c3ccccn3)nc2N[C@@H](C)C(F)(F)F)c(F)c1.Cl` [Example 29a, 6-Chloro-5-{2,6-difluoro-4-[3-(methylamino)propoxy]phenyl}-2-pyridin-2-yl-N-[(S)-2,2,2-trifluoro-1-methylethyl]pyrimidin-4-amine hydrogen chloride], in assay [1] (setting [4]), the “T/C on day 0” value is given as 1.03, the “T/C on day 2” value is 0.34** and the “T/C on day 7” value is recorded as “Toxic”. Further, in assay [1] (setting [5]), the “T/C on day 0” value was determined as 1.02, the “T/C on day 2” value was 0.43**, the “T/C on day 7” value is reported as 0.37** and the “T/C on day 9” value is 0.33**. Also, the “T/C on day 14” value in assay [1] (setting [5]) is 0.25**. In assay [1] (orally on day 0 with 5 mg/kg), the growth of xenografts result is “inhibits the growth”. Further, it took 6.8 nM to reach half-maximal inhibition in the assay on HL-60/ADR cells (Homo sapiens, HL60/ADR) (IC50). The Ratio in the assay with HL-60/ADR cells is given as 1.0. The same molecule registered a half-maximal inhibitory concentration (IC50) with KB cells (Homo sapiens) of 6.2 nM. Also, the IC50 with S1 cells (Homo sapiens) came to 7.9 nM. Also, the “A340 Compound / A340 Control” value with MAP-rich tubulin stood at 2.4.

As to `CNCCCOc1cc(F)c(-c2c(Cl)nc(-n3cccn3)nc2N[C@@H](C)C(F)(F)F)c(F)c1.Cl` [Example 32a, 6-Chloro-5-{2,6-difluoro-4-[3-(methylamino)propoxy]phenyl}-2-(1H-pyrazol-1-yl)-N-[(1S)-2,2,2-trifluoro-1-methylethyl)pyrimidin-4-amine Hydrogen Chloride], the “T/C on day 0” value in assay [1] (setting [6]) and in assay [1] (setting [7]) was 0.95 in each case. In addition, the entries for the “T/C on day 4” value in assay [1] (setting [6]) and in assay [1] (setting [7]) were 0.89 and 0.72, respectively. Further, the entries for the “T/C on day 7” value in assay [1] (setting [6]) and in assay [1] (setting [7]) were 0.63* and 0.46**, respectively. Further, the “T/C on day 13” value in assay [1] (setting [6]) is 0.48*; in assay [1] (setting [7]), 0.10**. Moreover, in assay [1] (intravenously on days 0 and 7 at 3 or 1.5 mg/kg/dose), the growth of xenografts entry was “inhibits the growth”. The IC50 worked out at 2.2 nM in the assay with HL-60/ADR cells (Homo sapiens, HL60/ADR); 2.4 nM in the assay on KB cells (Homo sapiens); 9.9 nM in the assay with S1 cells (Homo sapiens). In the assay on HL-60/ADR cells, the Ratio was determined as 0.8. For the same molecule, the “A340 Compound / A340 Control” value in the assay with MAP-rich tubulin was determined as 2.3.

Consider `CC(=O)O[C@H]1C(=O)[C@@]2(C)[C@H]([C@H](OC(=O)c3ccccc3)[C@]3(O)C[C@H](OC(=O)[C@H](O)[C@@H](NC(=O)c4ccccc4)c4ccccc4)C(C)=C1C3(C)C)[C@]1(OC(C)=O)CO[C@@H]1C[C@@H]2O` [Paclitaxel, reference compound], for which the concentration for half-maximal inhibition (IC50) amounted to 3.5 nM in the assay with HL-60/ADR cells (Homo sapiens, HL60/ADR) and 4.2 nM in the assay with S1 cells (Homo sapiens). In addition, the “A340 Compound / A340 Control” value with MAP-rich tubulin came out at 2.4.

On to `CC[C@]1(O)C[C@H]2CN(CCc3c([nH]c4ccccc34)[C@@](C(=O)OC)(c3cc4c(cc3OC)N(C=O)[C@H]3[C@@](O)(C(=O)OC)[C@H](OC(C)=O)[C@]5(CC)C=CCN6CC[C@]43[C@@H]65)C2)C1` [Vincristine, reference compound], for which the half-inhibitory concentration (IC50) in the assay with HL-60/ADR cells (Homo sapiens, HL60/ADR) was determined as 24 nM; in the assay with KB cells (Homo sapiens), 2.2 nM; in the assay on S1 cells (Homo sapiens), 14 nM. The Ratio in the assay with HL-60/ADR cells is 9.6. Also, in the assay on MAP-rich tubulin, the “A340 Compound / A340 Control” value turned out to be 0.2.
